US20240058387A1, “CULTURE MEDIUM COMPOSITION FOR AMPLIFYING AND MAINTAINING SELF-RENEWAL CAPACITY AND DIFFERENTIATION POTENTIAL OF HSCS AND APPLICATION THEREOF” (EDIGENE (GUANGZHOU) INC., priority 2020, published 2024)

How the values were obtained:
[1] = system: umbilical cord blood-derived CD34+ cells; assay: Cell counting: total cell number and absolute number of marker-positive cells after small molecule induction; format: cell-based, human; conditions: 6 days
Procedure: (§1) According to the solubility and required solvent indicated in the instructions of the small molecule inhibitor (see Table 1 for the Cat. number of the small molecule inhibitor), the preparation of the small molecule inhibitor stock solution was carried out. Next, the hematopoietic stem cell medium was prepared: SFEM II medium (stem cell, Cat. number: 09655)+50 ng/ml growth factor Flt-3L (PeProtech, Cat. number: 300-100UG)+50 ng/ml growth factor SCF (PeProtech, Cat. number): 300-07-100UG)+50 ng/ml growth factor TPO (PeProtech, Cat. number: 300-18-100UG)+10 ng/ml interleukin IL-6 (PeProtech, Cat. number: 200-06-20UG)+1% bispecific antibody (HyClone, Cat. No.: sv30010). According to the set concentration gradient of the small molecule inhibitor, the stock solution and the basal medium were used to prepare the medium containing different concentrations of the small molecule inhibitor.
(§2) First, the prepared medium was added to a 24-well plate (Corning, Cat. number: 3473), 950 μl per well, and placing it in a carbon dioxide incubator (Thermo, model: 3111) to preheat; resuspending the spare umbilical cord Blood-derived HSCs of Example 1 with SFEM 11+50 ng/ml Flt-3L+50 ng/ml SCF+50 ng/ml TPO+10 ng/ml IL-6+1% bispecific antibody, calculating the medium volume to be added according to 50 μl cell suspension per well and 2*10^5/m1 cell density per well. For example, when the final volume of the cell culture solution per well was 1 ml, the total number of cells per well was 2*10^5 cells calculated according to the cell density per well, and the density of the […] of cell suspension supplemented to each well is 4*10^6/ml. The density of the spare HSCs of Example 1 was adjusted to the calculated density of the cell suspension, and adding it; taking out the preheated medium from the incubator, adding 50 μl of the cell suspension to each well, and after mixing, using the microscope (OLYMPUS, model: CKX53) to observe the cells state, and then putting it into an incubator for culturing.
On the umbilical cord blood-derived CD34+ cells sorted in Example 1, the optimal concentration of the screened-out inhibitor AG1296 was screened in the same way as in Example 2. After 6 days of induction with different concentrations of the small molecule inhibitor AG1296, the expression of LT-HSCs cell surface markers (CD34+CD45+CD90+CD45RA−CD38−) was detected by flow cytometry using the same method as in Example 3. 20 μL of cell suspension was taken to count in a cell counter (Nexcelom, model: Cellometer K2) on the 6th day of culture, calculating the absolute number of the final CD34+ cells and LT-HSCs on the 6th day (absolute number of cells=total number of cells*sternness ratio). The results were shown in FIGS. 3A-3B and FIGS. 4A-4B, respectively.

[2] = system: mobilized peripheral blood-derived CD34+ cells; assay: Flow cytometry detection of HSC stemness markers, comparison with UM171 and SR1; format: cell-based, human; conditions: FIG. 5A; 1 μM; 8 days
Procedure: as §1, §2
20 μL of cells cultured for 6-8 days (D6-D8) in the above Example 2 was sampled for counting, taking out a suspension of 2*10^5 cells into a 1.5 ml centrifuge tube according to the counting result; centrifuging at 400 g for 5 min, discarding the supernatant. 100 μL of PBS (phosphate-buffered saline solution, HyClone, Cat. number: SH30256.01) containing 1% HSA (human serum albumin, Guangdong Shuanglin, Cat. number: S10970069) was taken, resuspending the cells, and vortexing to mix well for later use. Then, the cell sample in the control was collected. The number of cells and the collection method were the same as those of the sample cells to be tested. The controls were setting as the NC group and the ISO group respectively, selecting the cells from any sample or mixed cells of the samples to be tested in this batch of experiments, depending on the number of cells.
According to Table 3 above, the antibodies were added to the cell suspensions of the above-mentioned cell samples to be tested and control cell samples according to groups; vortexing to mix and incubating at room temperature for 15 min in the dark. After 15-min incubation, 1 ml of PBS containing 1% HSA was added to each test sample, mixing well, centrifuging at 400 g for 5 min at room temperature. After centrifugation, the supernatant was discarded, and the cells were resuspended in 100 μL of PBS containing 1% HSA for each test sample. Samples were stored at room temperature away from light before testing. […]

[3] = FIG. 3B, 1 μM, 5 μM and 10 μM, vs Mock

`COc1cc2ncc(-c3ccccc3)nc2cc1OC` [AG1296] was tested, and the total cell number ([1]; FIG. 3B, 1 μM vs 5 μM and 10 μM) was “higher cell numbers than that at concentrations of 5 μM and 10 μM”, the “absolute number of proliferating LT-HSCs” value ([1]; FIG. 3B, 1 μM, 5 μM and 10 μM) was “better effect” and the “effect on cell proliferation” value ([1]; FIG. 3B, 1 μM, 5 μM and 10 μM) was “slightly inhibited cell proliferation”. The “absolute number of CD34+CD90+CD45RA- cells” value [1, 3] was “significantly better than the Mock group”, the “absolute numbers of CD34+ cells” value [1, 3] was “lower than that in the mock group” and the “absolute number of proliferating LT-HSCs relative to other groups” value ([1]; FIG. 4B, 1 μM) was 1-2 times. For the same compound, the “effect on cell proliferation” value ([1]; FIG. 4B, 1 μM) was “slightly inhibited cell proliferation”, the “absolute number of CD34+ cells” value ([1]; FIG. 4B, 1 μM, vs Mock, 100 nM, 500 nM groups) was “not significantly better than other groups” and the “absolute number of CD34+CD90+, and CD34+CD90+CD45RA- cells” value ([1]; FIG. 4B, 1 μM, vs other groups) was “significantly better than other groups”. The “maintaining the proportion of CD34+, CD34+CD90+, and CD34+CD90+CD45RA- cells, vs Mock, UM171 and lower AG1296 concentrations” value [2] was “significantly more effective than Mock group, UM171 group, AG1296 (500 nM) group and AG1296 (700 nM) group”, the “maintaining the proportion of CD34+, CD34+CD90+, and CD34+CD90+CD45RA- cells, vs SR1 group” value [2] was “not as good as the SR1 group” and the “proportion of LT-HSCs relative to AG1296 (500 nM) group and AG1296 (700 nM) group” value [2] was “about 1 time”. For the same compound, the “proportion of LT-HSCs relative to Mock group and UM171 group” value [2] was “about 2 times” and the “proportion of LT-HSCs, vs SR1 group” value [2] was “not as good as SR1 group”.
